This assay deals with human ACC2 (Homo sapiens (Human), UniProt O00763). The experiment in a line: ACC2 assay, spectrophotometric 384 well assay (NADH-linked kinetic method). The class given is biochemical. Conditions: human ACC2 construct lacking the 128 N-terminal amino acids; coupled lactate dehydrogenase/pyruvate kinase reaction, 340 nm, 25° C. An outline of the steps:
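N-terminally truncated human ACC2 (lacking 128 residues), expressed in insect cells, was coupled to pyruvate kinase/lactate dehydrogenase, with NADH and acetyl-CoA at 2000 μM and ATP at 500 μM final. The OD340 decrease was followed over 15 min at 25 °C. Slopes were normalised to vehicle and no-acetyl-CoA controls, and IC50 came from four-parameter regression.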

human ACC2, sequence (O00763 129-2458): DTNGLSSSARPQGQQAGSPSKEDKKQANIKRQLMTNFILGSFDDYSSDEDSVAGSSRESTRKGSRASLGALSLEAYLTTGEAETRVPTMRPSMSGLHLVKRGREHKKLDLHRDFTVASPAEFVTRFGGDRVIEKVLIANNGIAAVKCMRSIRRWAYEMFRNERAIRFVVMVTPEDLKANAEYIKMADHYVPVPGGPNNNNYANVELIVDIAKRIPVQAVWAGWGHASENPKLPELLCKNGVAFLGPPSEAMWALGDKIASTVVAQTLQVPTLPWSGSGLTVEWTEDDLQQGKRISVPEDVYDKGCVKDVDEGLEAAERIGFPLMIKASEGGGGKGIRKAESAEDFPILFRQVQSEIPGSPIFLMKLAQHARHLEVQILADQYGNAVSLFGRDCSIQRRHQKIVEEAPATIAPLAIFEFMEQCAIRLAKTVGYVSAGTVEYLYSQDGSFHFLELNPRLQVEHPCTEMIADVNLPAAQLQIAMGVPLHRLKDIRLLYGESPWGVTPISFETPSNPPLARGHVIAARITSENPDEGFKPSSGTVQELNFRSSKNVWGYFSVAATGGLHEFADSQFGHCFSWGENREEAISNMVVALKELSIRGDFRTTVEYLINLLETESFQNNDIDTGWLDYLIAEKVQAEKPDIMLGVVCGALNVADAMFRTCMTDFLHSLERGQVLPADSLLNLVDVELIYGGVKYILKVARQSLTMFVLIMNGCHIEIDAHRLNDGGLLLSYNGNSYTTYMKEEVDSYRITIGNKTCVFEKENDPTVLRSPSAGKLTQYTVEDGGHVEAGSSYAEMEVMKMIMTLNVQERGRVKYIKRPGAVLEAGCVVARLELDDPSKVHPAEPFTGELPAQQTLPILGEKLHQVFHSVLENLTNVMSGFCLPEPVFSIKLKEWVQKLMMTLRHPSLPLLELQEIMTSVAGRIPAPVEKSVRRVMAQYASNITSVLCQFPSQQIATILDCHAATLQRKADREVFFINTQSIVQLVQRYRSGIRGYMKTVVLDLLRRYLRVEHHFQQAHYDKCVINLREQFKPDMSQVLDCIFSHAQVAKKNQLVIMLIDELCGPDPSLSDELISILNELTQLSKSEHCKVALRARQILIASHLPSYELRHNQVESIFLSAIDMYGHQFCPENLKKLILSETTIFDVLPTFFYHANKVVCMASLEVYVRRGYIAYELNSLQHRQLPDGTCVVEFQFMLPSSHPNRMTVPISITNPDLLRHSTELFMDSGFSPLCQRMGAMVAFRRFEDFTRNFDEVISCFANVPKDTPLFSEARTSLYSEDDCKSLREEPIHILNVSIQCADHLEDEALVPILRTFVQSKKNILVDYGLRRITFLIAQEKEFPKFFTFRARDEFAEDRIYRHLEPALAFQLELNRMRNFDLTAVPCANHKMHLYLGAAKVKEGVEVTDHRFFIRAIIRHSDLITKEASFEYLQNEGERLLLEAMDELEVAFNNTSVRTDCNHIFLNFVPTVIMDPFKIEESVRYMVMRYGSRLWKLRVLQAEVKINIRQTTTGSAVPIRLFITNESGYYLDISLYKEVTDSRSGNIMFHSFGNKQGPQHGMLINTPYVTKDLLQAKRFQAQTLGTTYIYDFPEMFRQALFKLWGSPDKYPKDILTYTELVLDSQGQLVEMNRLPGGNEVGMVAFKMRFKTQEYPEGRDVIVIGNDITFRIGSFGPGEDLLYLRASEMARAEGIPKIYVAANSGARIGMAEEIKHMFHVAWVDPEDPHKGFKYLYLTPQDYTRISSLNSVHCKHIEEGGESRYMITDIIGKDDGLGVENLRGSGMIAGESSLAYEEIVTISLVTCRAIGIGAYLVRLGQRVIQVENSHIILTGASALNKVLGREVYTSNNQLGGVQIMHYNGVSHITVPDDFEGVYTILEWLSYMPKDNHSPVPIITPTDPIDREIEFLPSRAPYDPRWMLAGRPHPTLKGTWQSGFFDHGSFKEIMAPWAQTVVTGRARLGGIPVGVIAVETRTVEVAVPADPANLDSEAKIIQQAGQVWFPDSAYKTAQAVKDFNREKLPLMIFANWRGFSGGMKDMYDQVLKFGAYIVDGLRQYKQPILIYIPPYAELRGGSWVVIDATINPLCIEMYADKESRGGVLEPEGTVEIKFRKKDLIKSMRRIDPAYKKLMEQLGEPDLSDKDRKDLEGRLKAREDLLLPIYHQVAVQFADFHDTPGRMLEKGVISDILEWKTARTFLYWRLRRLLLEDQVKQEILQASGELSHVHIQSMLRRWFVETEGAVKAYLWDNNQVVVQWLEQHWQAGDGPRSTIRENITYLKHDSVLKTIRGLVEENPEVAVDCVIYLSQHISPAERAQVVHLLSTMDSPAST

Molecule `CCC(=O)N[C@@H](C)c1ccc(OC2CCN(c3ccnc(OC(C)C)c3)C2)cc1` (stereo partly shown) [Example 2.30] returned an IC50 of 455 nM.
For `CC(=O)N[C@@H](C)c1ccc(O[C@@H]2CCN(c3nccc(OCC4CC4)c3F)C2)cc1` [Example 9.67] the value was 146 nM.
Next, `CC(=O)N[C@@H](C)c1ccc(OC2CCN(c3ccc(F)c(C)n3)C2)cc1` (stereo partly shown) [Example 1.65]: 107 nM; `CCOc1cc(N2CCC(Oc3ccc([C@H](C)NC(C)=O)cc3)C2)c(C)cn1` (stereo partly shown) [Example 1.24]: 447 nM; `CC(=O)N[C@@H](C)c1ccc(O[C@@H]2CCN(c3ccnc(OCC4CC4(F)F)c3Cl)C2)cc1` (stereo partly shown) [Example 9.71]: 45 nM.
`CC(=O)N[C@@H](C)c1ccc(O[C@@H]2CCN(c3ccc(Cl)c(C(F)(F)F)n3)C2)cc1` [Example 8.8] displayed an IC50 of 265 nM.
Next, `COCC(C)Oc1cc(N2CC[C@@H](Oc3ccc([C@H](C)NC(C)=O)cc3)C2)ccn1` (stereo partly shown) [Example 9.3]: 480 nM; `C[C@H](NC(=O)c1cnn(C)c1Cl)c1ccc(OC2CCN(c3ccnc(OCC4CC4)c3)C2)cc1` (stereo partly shown) [Example 2.69]: 281 nM; `C[C@H](NC(=O)c1cncs1)c1ccc(O[C@@H]2CCN(c3ccc(OCCCF)cn3)C2)cc1` [Example 1.82]: 110 nM.
For `C[C@H](NC(=O)N1CCOCC1)c1ccc(OC2CCN(c3ccnc(OCC(F)F)c3)C2)cc1` (stereo partly shown) [Example 3.13] the value was 497 nM; for `CC(=O)N[C@@H](C)c1ccc(O[C@@H]2CCN(c3ccnc(N(C)C)c3F)C2)cc1` [Example 10.17], 97 nM.
The molecule `CC(=O)N[C@@H](C)c1ccc(O[C@@H]2CCN(c3ccc(OCC(F)(F)C(F)F)cn3)C2)cc1` [Example 11.2] displayed an IC50 of 870 nM.
Next, `CC#CCOc1cc(N2CC[C@@H](Oc3ccc([C@H](C)NC(C)=O)cc3)C2)ccn1` [Example 9.8]: 268 nM.
Next, `COc1cccc(N2CCC(Oc3ccc([C@H](C)NC(C)=O)cc3)C2)n1` (stereo partly shown) [Example 1.57]: 678 nM; `C[C@H](NC(=O)c1cc[nH]n1)c1ccc(OC2CCN(c3cccc(C(F)(F)F)n3)C2)cc1` (stereo partly shown) [Example 2.64]: 45 nM.
Next, `COCCN(C)c1nccc(N2CC[C@@H](Oc3ccc([C@H](C)NC(C)=O)cc3)C2)c1F` [Example 1.106]: 69 nM; `CC(=O)N[C@@H](C)c1ccc(O[C@@H]2CCN(c3ccnc(OCC(F)F)c3C)C2)cc1` [Example 9.54]: 115 nM; `CC(=O)N[C@@H](C)c1ccc(O[C@@H]2CCN(c3ccnc(OCC4CCC4)c3)C2)cc1` [Example 9.15]: 40 nM.
`C[C@H](NC(=O)N1CCOCC1)c1ccc(OC2CCN(c3ccc(OCC4CC4(F)F)cn3)C2)cc1` (stereo partly shown) [Example 3.10] yielded an IC50 of 112 nM.
The molecule `COc1c(N2CC[C@@H](Oc3ccc([C@H](C)NC(C)=O)cc3)C2)ccnc1OCCC1CC1` [Example 1.139] returned an IC50 of 37 nM.
As for `CCCNc1nccc(N2CC[C@@H](Oc3ccc([C@H](C)NC(C)=O)cc3)C2)c1Cl` [Example 1.135], 62 nM corresponded to half-maximal inhibition (IC50).
`Cc1cc(CC(=O)N[C@@H](C)c2ccc(OC3CCN(c4ccnc(OCC5CC5)c4)C3)cc2)on1` (stereo partly shown) [Example 2.87]: it took 270 nM to reach half-maximal inhibition (IC50).
For `CC(=O)N[C@@H](C)c1ccc(O[C@@H]2CCN(c3ccnc(OCC(C)(C)O)c3Cl)C2)cc1` [Example 9.88] the value was 177 nM.
For `CCCOc1cc(N2CCC(Oc3ccc([C@H](C)NC(C)=O)cc3)C2)ccn1` (stereo partly shown) [Example 1.16] the value was 114 nM; for `CC(=O)N[C@@H](C)c1ccc(O[C@@H]2CCN(c3ccnc(NCC4(O)CCC4)c3Cl)C2)cc1` [Example 10.55], 57 nM; for `COC(C)(C)COc1nccc(N2CC[C@@H](Oc3ccc([C@H](C)NC(C)=O)cc3)C2)c1F` [Example 9.87], 280 nM.
Next, `COCCOc1cc(N2CC[C@@H](Oc3ccc([C@H](C)NC(C)=O)cc3)C2)ccn1` [Example 9.18]: 482 nM; `CC(=O)N[C@@H](C)c1ccc(O[C@@H]2CCN(c3nccc(N4CCCC4)c3F)C2)cc1` [Example 1.99]: 201 nM.
In turn, `CC(=O)N[C@@H](C)c1ccc(O[C@@H]2CCN(c3ccnc(OCC4CC4(F)F)c3F)C2)cc1` (stereo partly shown) [Example 9.62] yielded an IC50 of 44 nM.
Next, `CC(=O)N[C@@H](C)c1ccc(O[C@@H]2CCN(c3ccnc(N4CCCCC4)c3F)C2)cc1` [Example 1.102]: 61 nM.
For `CC(=O)N[C@@H](C)c1ccc(O[C@@H]2CCN(c3ccnc(OC4CCCC4)c3)C2)cc1` [Example 9.28] the value was 40 nM; for `C[C@H](NC(=O)C1(C#N)CC1)c1ccc(OC2CCN(c3ccnc(OCC4CC4)c3)C2)cc1` (stereo partly shown) [Example 2.65], 85 nM; for `CC(=O)N[C@@H](C)c1ccc(O[C@@H]2CCN(c3ccnc(OC4CC=CC4)c3)C2)cc1` [Example 9.11], 68 nM.
For `C[C@H](NC(=O)CC#N)c1ccc(OC2CCN(c3ccnc(OCC4CC4)c3)C2)cc1` (stereo partly shown) [Example 2.71] the value was 110 nM; for `C[C@H](NC(=O)c1cncs1)c1ccc(OC2CCN(c3ccnc(N4CCC(F)(F)C4)c3F)C2)cc1` (stereo partly shown) [Example 2.125], 60 nM.
In the case of `CC(=O)Nc1nc(C)c(C(=O)N[C@@H](C)c2ccc(O[C@@H]3CCN(c4cccc(C(F)(F)F)n4)C3)cc2)s1` [Example 1.45], the IC50 worked out at 64 nM.
For the molecule `CC(=O)N[C@@H](C)c1ccc(O[C@@H]2CCN(c3nccc(N(C)CC4CC4)c3F)C2)cc1` [Example 1.100], 385 nM corresponded to half-maximal inhibition (IC50).
`CC(=O)N[C@@H](C)c1ccc(OC2CCN(c3ncc(OC(C)C)cc3F)C2)cc1` (stereo partly shown) [Example 1.22] registered an IC50 of 104 nM.
For `C[C@H](NC(=O)c1cnsc1)c1ccc(OC2CCN(c3cccc(C(F)(F)F)n3)C2)cc1` (stereo partly shown) [Example 2.45] the value was 100 nM.
For `CO[C@@H](C)COc1cc(N2CC[C@@H](Oc3ccc([C@H](C)NC(C)=O)cc3)C2)ccn1` [Example 9.44] the value was 639 nM; for `C[C@H](NC(=O)c1cnco1)c1ccc(OC2CCN(c3ccnc(N4CCC(F)(F)C4)c3F)C2)cc1` (stereo partly shown) [Example 2.126], 45 nM.
For `CCOc1nccc(N2CC[C@@H](Oc3ccc([C@H](C)NC(C)=O)cc3)C2)c1F` [Example 9.86] the value was 187 nM; for `CC(=O)N[C@@H](C)c1ccc(OC2CCN(c3ccnc(Oc4cccnc4)c3)C2)cc1` (stereo partly shown) [Example 1.68], 354 nM; for `C[C@H](NC(=O)N(C)C)c1ccc(OC2CCN(c3ncc(OCC4CC4(F)F)cc3F)C2)cc1` (stereo partly shown) [Example 1.55], 154 nM.
With `COCC(=O)Nc1nc(C)c(C(=O)N[C@@H](C)c2ccc(OC3CCN(c4ccnc(OCC5CC5)c4)C3)cc2)s1` (stereo partly shown) [Example 2.75], the IC50 was 39 nM.
Next, `CC(=O)Nc1nc(C)c(C(=O)N[C@@H](C)c2ccc(OC3CCN(c4ccc(OC[C@H]5CC5(F)F)cn4)C3)cc2)s1` (stereo partly shown) [Example 2.90]: 9 nM; `CC(=O)N[C@@H](C)c1ccc(OC2CCN(c3nc(C(F)(F)F)ccc3F)C2)cc1` (stereo partly shown) [Example 1.36]: 168 nM.
Next, `CC(=O)N[C@@H](C)c1ccc(O[C@@H]2CCN(c3ccc(OCC4CC(F)(F)C4)cn3)C2)cc1` [Example 1.123]: 228 nM; `CC(=O)N[C@@H](C)c1ccc(O[C@@H]2CCN(c3ccnc(O[C@H]4CCOC4)c3)C2)cc1` [Example 9.25]: 572 nM.
Next, `CC(=O)N[C@@H](C)c1ccc(O[C@@H]2CCN(c3cc(N4CCOCC4)ncc3F)C2)cc1` [Example 10.22]: 552 nM.
Molecule `C[C@H](NC(=O)c1ccno1)c1ccc(OC2CCN(c3cccc(C(F)(F)F)n3)C2)cc1` (stereo partly shown) [Example 2.52] showed an IC50 of 275 nM.
For `COc1c(N2CC[C@@H](Oc3ccc([C@H](C)NC(C)=O)cc3)C2)ccnc1OCC(C)(C)O` [Example 1.151] the value was 504 nM.
Next, `CC(=O)N[C@@H](C)c1ccc(O[C@@H]2CCN(c3ccnc(OCc4ccncc4)c3)C2)cc1` [Example 9.35]: 584 nM.
For `CCOc1cnc(N2CCC(Oc3ccc([C@H](C)NC(C)=O)cc3)C2)c(F)c1` (stereo partly shown) [Example 1.9] the value was 556 nM; for `CCC(=O)Nc1nc(C)c(C(=O)N[C@@H](C)c2ccc(O[C@@H]3CCN(c4ccnc(NCC5CC5)c4F)C3)cc2)s1` [Example 1.142], 67 nM.
`CC(=O)Nc1cc(C(=O)N[C@@H](C)c2ccc(OC3CCN(c4ccnc(OC(C)C)c4)C3)cc2)ccn1` (stereo partly shown) [Example 2.26]: the IC50 was determined as 466 nM.
For the molecule `CC(=O)N[C@@H](C)c1ccc(O[C@@H]2CCN(c3cccc(N(C)C4CCC4)n3)C2)cc1` [Example 1.134], the IC50 stood at 102 nM.
For `CC(=O)N[C@@H](C)c1ccc(O[C@@H]2CCN(c3ccnc(OCC4CC4C#N)c3)C2)cc1` (stereo partly shown) [Example 9.24] the value was 55 nM; for `CC(=O)N[C@@H](C)c1ccc(O[C@@H]2CCN(c3cccc(N4CCC4)n3)C2)cc1` [Example 10.11], 209 nM.
For `CC(=O)N[C@@H](C)c1ccc(O[C@@H]2CCN(c3ccnc(OC4CCCCC4)c3)C2)cc1` [Example 9.7] the value was 40 nM.
For `CCC(=O)N[C@@H](C)c1ccc(OC2CCN(c3ccnc(OCC(F)F)c3)C2)cc1` (stereo partly shown) [Example 2.106] the value was 88 nM; for `Cc1cc(CC(=O)N[C@@H](C)c2ccc(OC3CCN(c4ccnc(OCC(F)F)c4)C3)cc2)on1` (stereo partly shown) [Example 2.100], 624 nM; for `CC(C)Oc1cc(N2CCC(Oc3ccc([C@H](C)NC(=O)C4CCOC4)cc3)C2)ccn1` (stereo partly shown) [Example 2.15], 769 nM.
As to `C[C@H](NC(=O)C(F)(F)C(F)(F)F)c1ccc(O[C@@H]2CCN(c3cccc(C(F)(F)F)n3)C2)cc1` [Example 7.1, 2,2,3,3,3-Pentafluoro-N—((S)-1-(4-((R)-1-(6-(trifluoromethyl)pyridin-2-yl)pyrrolidin-3-yloxy)phenyl)ethyl)propanamide], inhibition was half-maximal at 400 nM (IC50).

A word on the IC50: it is the point on the concentration scale where inhibition reaches its midpoint. Read a low IC50 as greater potency.

The values above are taken from patent US8877741B2, “Pyrrolidine derivatives, pharmaceutical compositions and uses thereof” (Boehringer Ingelheim International GmbH, priority 2013, dated 2014).
